System: 610 metabolites from 63 biochemical pathways
Assay: Targeted broad-spectrum plasma metabolomic analysis (LC-MS/MS), paired pre-infusion vs post-infusion (2-days and 6-weeks)
Type: in vivo, human
Details: for Linear Ratio / VIP Score / Z Abs / Z Score: plasma
Experimental: Targeted, broad-spectrum, plasma metabolomic analysis of 610 metabolites from 63 biochemical pathways was performed by high performance liquid chromatography and tandem mass spectrometry (LC-MS/MS) on the samples collected from patients in Example 1. Venous blood was collected between the hours of 8 am and 5 pm, at least 3 hours after the last meal, into lithium-heparin vacutainer tubes (BD #367884). Plasma was separated by centrifugation at 900 g×10 minutes at room temperature within one hour of collection. The resulting fresh lithium-heparin plasma was transferred to labeled 1.2 ml or 2.0 ml externally threaded cryotubes with a minimum headspace air gap for storage at −80° C. for analysis. Samples were analyzed on an AB SCIEX QTRAP 5500 triple quadrupole mass spectrometer equipped with a Turbo V electrospray ionization (ESI) source, Shimadzu LC-20A UHPLC system, and a PAL CTC autosampler. Typically, 90 μl of plasma was thawed on ice and transferred to a 1.7 ml Eppendorf tube. Five (5.0) μl of a cocktail containing 25-35 commercial stable isotope internal standards, and 5.0 μl of 57 stable isotope internal standards that were custom-synthesized in E. coli NCM3722, Caenorhabditis elegans N2, and Komagataella phaffii (ATCC 76273; formerly known as Pichia pastoris) by metabolic labeling with 13C-glucose and 13C-bicarbonate, were added, mixed, and incubated for 10 min at 20° C. to permit small molecules and vitamins in the internal standards to associate with plasma binding proteins. Macromolecules (protein, DNA, RNA, glycans, etc.) were precipitated by extraction with 4 volumes (400 μl) of cold (−20° C.), acetonitrile:methanol (50:50) (LCMS grade, Cat #LC015-2.5 and GC230-4, Burdick & Jackson, Honeywell), vortexed vigorously, and incubated on crushed ice for 10 min, then removed by centrifugation at 16,000 g×10 min at 4° C. The supernatants containing the extracted metabolites and internal standards in the resulting 40:40:20 solvent mix of acetonitrile:methanol:water were transferred to labeled cryotubes and stored at −80° C. for LCMS/MS analysis.
LC-MS/MS analysis was performed by scheduled multiple reaction monitoring (sMRM) under Analyst v1.6.2 software control in both negative and positive mode with rapid polarity switching (50 ms). Nitrogen was used for curtain gas (set to 30), collision gas (set to high), ion source gas 1 and 2 (set to 35). The source temperature was 500° C. Spray voltage was set to −4500 V in negative mode and 5500 V in positive mode. The values for Q1 and Q3 mass-to-charge ratios (m/z), declustering potential (DP), entrance potential (EP), collision energy (CE), and collision cell exit potential (CXP) were determined and optimized for each MRM for each metabolite. Ten microliters of extract was injected by PAL CTC autosampler via a 10 μl stainless steel loop into a 250 mm×2.0 mm, 4 μm polymer based NH2 HPLC column (Asahipak NH2P-40 2E, Showa Denko America, Inc., NY) held at 25° C. for chromatographic separation. The mobile phase was solvent A: 95% water with 20 mM (NH4)2CO3 (Sigma, Fluka Cat #74415-250G-F), 5% acetonitrile, and 38 mM NH4OH (Sigma, Fluka Cat #17837-100ML), final pH 9.75; solvent B: 100% acetonitrile. Separation was achieved using the following gradient: 0-3.5 min: 95% B, 3.6-8 min: 85% B, 8.1-13 min: 75% B, 13.5-35 min: 0% B, 36-46 min: 95% B, 46.1 min: end. The flow rate was 200 μl/min. Pump pressures ranged from 920-2600 psi over the course of the gradient. All the samples were kept at 4° C. during analysis. The chromatographic peaks were identified using MultiQuant (v3.0, Sciex), confirmed by manual inspection, and the peak areas integrated. […]

[1] = Branch Chain Amino Acid Metabolism, 2-days
[2] = Branch Chain Amino Acid Metabolism, 6-weeks
[3] = Chenodeoxyglycocholic acid, 6-weeks
[4] = Cholesterol, Cortisol, Non-Gonadal Steroid Metabolism, 6-weeks
[5] = Cholesterol, Cortisol, Non-Gonadal Steroid, 2-days
[6] = Cyclic adenosine monophosphate, 6-weeks
[7] = Deoxy guanosine diphosphate, 6-weeks
[8] = Eicosanoid and Resolvin Metabolism, 2-days
[9] = Endocannabinoid Metabolism, 2-days
[10] = Fatty Acid Oxidation and Synthesis, 2-days
[11] = Fatty Acid Oxidation and Synthesis, 6-weeks

## Cc1ccc(C(=O)Nc2ccc(S(=O)(=O)O)c3cc(S(=O)(=O)O)cc(S(=O)(=O)O)c23)cc1NC(=O)c1cccc(NC(=O)Nc2cccc(C(=O)Nc3cc(C(=O)Nc4ccc(S(=O)(=O)O)c5cc(S(=O)(=O)O)cc(S(=O)(=O)O)c45)ccc3C)c2)c1 [Suramin, suramin]
[1]
  Fold Enrichment (Obs/Exp): 2.4
  Fraction of Impact (VIP Score) Explained (% of 119.7): 6%
  Impact (Sum VIP Score): 7.3
  Increased: 4
  Observed Hits in the Top 61 Metabolites: 4
[2]
  Decreased: 0
  Fold Enrichment (Obs/Exp): 3.0
  Fraction of Impact (VIP Score) Explained (% of 94.6): 8%
  Impact (Sum VIP Score): 7.4
  Increased: 4
  Observed Hits in the Top 48 Metabolites: 4
Cardiolipin Metabolism, 2-days
  Decreased: 0
  Fold Enrichment (Obs/Exp): 2.0
  Fraction of Impact (VIP Score) Explained (% of 119.7): 3%
  Impact (Sum VIP Score): 3.1
  Increased: 2
  Observed Hits in the Top 61 Metabolites: 2
Ceramide Metabolism, 2-days
  Decreased: 0
  Fold Enrichment (Obs/Exp): 0.2
  Fraction of Impact (VIP Score) Explained (% of 119.7): 1%
  Impact (Sum VIP Score): 1.5
  Increased: 1
  Observed Hits in the Top 61 Metabolites: 1
Chenodeoxycholic acid, 6-weeks
  Linear Ratio: 2.080
  VIP Score: 1.670
  Z Abs: 1.575
  Z Score: 1.575
[3]
  Linear Ratio: 2.858
  VIP Score: 2.052
  Z Abs: 1.650
  Z Score: 1.650
[4]
  Decreased: 0
  Fold Enrichment (Obs/Exp): 1.1
  Fraction of Impact (VIP Score) Explained (% of 94.6): 4%
  Impact (Sum VIP Score): 3.5
  Increased: 2
  Observed Hits in the Top 48 Metabolites: 2
[5]
  Decreased: 0
  Fold Enrichment (Obs/Exp): 0.4
  Fraction of Impact (VIP Score) Explained (% of 119.7): 2%
  Impact (Sum VIP Score): 1.8
  Increased: 1
  Observed Hits in the Top 61 Metabolites: 1
Cinnamoylglycine, 6-weeks
  Linear Ratio: 1.190
  VIP Score: 1.790
  Z Abs: 2.218
  Z Score: 2.218
Citric acid, 6-weeks
  Linear Ratio: 1.363
  VIP Score: 2.410
  Z Abs: 1.772
  Z Score: 1.772
[6]
  Linear Ratio: 0.701
  VIP Score: 1.962
  Z Abs: 1.544
  Z Score: −1.544
Cysteamine, 6-weeks
  Linear Ratio: 1.157
  VIP Score: 2.060
  Z Abs: 2.007
  Z Score: 2.007
Cytosine, 6-weeks
  Linear Ratio: 1.932
  VIP Score: 2.442
  Z Abs: 2.582
  Z Score: 2.582
Decanoylcarnitine, 6-weeks
  Linear Ratio: 0.644
  VIP Score: 1.617
  Z Abs: 1.157
  Z Score: −1.157
[7]
  Linear Ratio: 0.864
  VIP Score: 1.915
  Z Abs: 1.583
  Z Score: −1.583
[8]
  Decreased: 4
  Fold Enrichment (Obs/Exp): 2.2
  Fraction of Impact (VIP Score) Explained (% of 119.7): 6%
  Impact (Sum VIP Score): 7.1
  Increased: 0
  Observed Hits in the Top 61 Metabolites: 4
[9]
  Decreased: 1
  Fold Enrichment (Obs/Exp): 1.8
  Fraction of Impact (VIP Score) Explained (% of 119.7): 1%
  Impact (Sum VIP Score): 1.7
  Increased: 0
  Observed Hits in the Top 61 Metabolites: 1
[10]
  Decreased: 1
  Fold Enrichment (Obs/Exp): 0.2
  Fraction of Impact (VIP Score) Explained (% of 119.7): 2%
  Impact (Sum VIP Score): 1.8
  Increased: 0
  Observed Hits in the Top 61 Metabolites: 1
[11]
  Decreased: 3
  Fold Enrichment (Obs/Exp): 0.7
  Fraction of Impact (VIP Score) Explained (% of 94.6): 5%
  Impact (Sum VIP Score): 5.0

Reference: patent US20190358181A1, “METHODS FOR AUTISM SPECTRUM DISORDER PHARMACOTHERAPY” (priority 2017, published 2019)
